Where two headings read alike, the source gives them in different places.
Legend:
[1] = system: PDOs that stably express high CEA levels; test: PDO and ex vivo CD8 T-cell co-culture with TGFβ inhibitor galunisertib; assay type: cell-based, human; settings: galunisertib 5 μM or 10 μM; TGFβ 10 ng/ml; cibisatamab 20 nM; ex vivo CD8 T cells, E:T 1:1; two PDO models
Protocol: PDOs that stably express high CEA levels were combined with ex vivo allogeneic CD8 T cells isolated from healthy donor PBMCs in a 2D co-culture at an effector:target (E:T) ratio of 1:1. T cells were preincubated with TGFβ (10 ng/ml) prior to adding either DP47 or cibisatamab treatment with or without TGFβ inhibitor galunisertib.
The growth of GFP PDOs was tracked by monitoring changes in confluency with fluorescence microscopy and efficacy of the combination therapy assessed by comparing growth reduction from single therapy and combined therapy conditions.
Ex vivo CD8 T cells were isolated from PBMCs as described above and pre-incubated with TGFβ (10 ng/ml) for 72 hours before being combined with tumour cells that were seeded 24 hours before at a density of 5000 tumour cells per well in a 96 well plate as described above (E:T 1:1). On the same day (day 0) the co-culture was treated with either 20 nM of cibisatamab or 20 nM of the untargeted negative control antibody DP47-TCB +/− TGFβ ([…]) +/− galunisertib (5 μM or 10 μM, Tocris). All conditions were plated in triplicates.
(§1) The GFP confluence was quantified every 48-96 hrs over a 12-day period using the GFP confluence application on the Celigo Imaging Cytometer (Nexcelom Bioscience). […] In order to calculate the percentage of growth reduction, the fold change of growth from day 0 to day 12 was calculated and 1 was subtracted. […]

[2] = system: patient-derived colorectal cancer organoid lines (PDOs) with high cell surface CEA expression levels; test: PDO growth in co-culture with CD8 or CD4 T cells (GFP confluence); assay type: cell-based, human
Protocol: Three patient-derived colorectal cancer organoid lines (PDOs) with high cell surface CEA expression levels were treated with cibisatamab (20 nM) or the corresponding untargeted control antibody DP47-TCB (see SEQ ID NOs 21 and 22 for VH and VL regions, respectively) (20 nM) either in the presence or absence of recombinant TGFβ1 (10 ng/ml) during 12 days of co-culture with allogeneic CD8 T cells at an Effector:Target ratio of […] (FIG. 1A). Growth of the nuclear GFP labelled organoid cells was monitored by fluorescent microscopy. CD8 T cells had been generated from allogeneic healthy donor cells by extracting peripheral blood mononuclear (PBMCs) cells followed by stimulation with IL-2 and CD3/CD28-beads and expansion in vitro. CD8 T cells and PDOs +/− TGFβ (10 ng/ml) were pre-incubated together for 72 hours prior to the addition of cibisatamab or DP47-TCB.
The same experiment was repeated using two PDO lines and CD4 T cells instead of CD8 T cells (FIG. 1B). CD4+CD25-T cells were isolated from allogeneic healthy donor PBMCs and expanded in vitro as described above.
The initial screen was generated with in vitro expanded and pre-activated CD8 T-cells. […]
In order to calculate the growth of cibisatamab treated PDOs relative to DP47-TCB treated PDOs, the fold change of growth from day 0 to day 12 was calculated and 1 was subtracted. […]
PDOs were harvested with TrypLE Express and neutralised with DMEM/F12 Ham medium (Sigma Aldrich) with 10% FBS. Cells were filtered through a 70 μm filter, counted and re-suspended in RPMI medium (Thermo Fisher) supplemented with 10% FBS (Labtech), 1X Glutamax and 100 units penicillin-streptomycin. […]
as §1

CD8 T-cells = test: FACS analysis of CD8 T-cells co-cultured with PDOs; assay type: cell-based, human; settings: 8 days co-culture with PDOs during CEA-TCB treatment; flow cytometry
Protocol: FIG. 3. Effect of TGFβ on granzyme expression and proliferation of CD8 T-cells. (A) Granzyme expression in ex vivo CD8 T-cells determined by flow cytometry after 8 days of co-culture with a high cell surface CEA expressing PDO. (B) Proliferation of ex vivo CD8 T-cells treated with either DP47-TCB or cibisatamab assessed by flow cytometry after 8 days of co-culture with a high cell surface CEA expressing PDO. (C) Same as (B) except that co-culture was treated with recombinant TGFβ.
Thus, TGFβ potently suppresses cibisatamab mediated tumor control by blocking proliferation and effector functions.

[3] = system: CEA expressing metastatic CRCs; settings: cited from earlier work

For `Cc1cccc(-c2nn3c(c2-c2ccnc4ccc(C(N)=O)cc24)CCC3)n1` [Galunisertib, 4-(5,6-Dihydro-2-(6-methyl-2-pyridinyl)-4H-pyrrolo(1,2-b)pyrazol-3-yl)-6-quinolinecarboxamide], the “reversal of TGFβ effects on cibisatamab activity (PDO growth)” value [1] was “strongly reduced TGFβ effects”.

With “TGFβ: recombinant TGFβ1 (10 ng/ml, R&D Systems) added to the co-cultures as immunosuppressive factor” the “growth of cibisatamab treated PDOs compared to PDOs treated with cibisatamab alone” value ([2]; TGFβ 10 ng/ml added, day 12, CD8 and CD4 T cells) was “increased the growth of cibisatamab treated PDOs”, the “effect of TGFβ on efficacy of cibisatamab” value ([2]; TGFβ1 10 ng/ml, cibisatamab 20 nM, CD8 and CD4 T cells, 12 days co-culture) was “impaired the efficacy of cibisatamab” and the T-cell granzyme expression (CD8 T-cells) was “strongly reduced”. The “proliferation of T-cells” value (CD8 T-cells) was “strongly reduced”.

B1: cibisatamab: T-cell activating bispecific antibody targeting carcinoembryonic antigen (CEA) on tumor cells and CD3 on T-cells (antibody, chains of the INN, looked up, V domains shown)
VH: QVQLVQSGAEVKKPGASVKVSCKASGYTFTEFGMNWVRQAPGQGLEWMGWINTKTGEATYVEEFKGRVTFTTDTSTSTAYMELRSLRSDDTAVYYCARWDFAYYVEAMDYWGQGTTVTVSS
VL: DIQMTQSPSSLSASVGDRVTITCKASAAVGTYVAWYQQKPGKAPKLLIYSASYRKRGVPSRFSGSGSGTDFTLTISSLQPEDFATYYCHQYYTYPLFTFGQGTKLEIK
VH2: B1 VH
VL2: QAVVTQEPSLTVSPGGTVTLTCGSSTGAVTTSNYANWVQEKPGQAFRGLIGGTNKRAPGTPARFSGSLLGGKAALTLSGAQPEDEAEYYCALWYSNLWVFGGGTKLTVL
In the case of B1, the “growth of PDOs relative to DP47-TCB treated (control) PDOs” value ([2]; cibisatamab 20 nM, day 12, CD8 or CD4 T cells) is given as “reduced the growth of PDOs”, the “antitumor activity with radiological shrinkage, share of patients” value ([3]; in combination with PD-L1-inhibiting antibodies, 5/10) is given as 50% and the “antitumor activity with radiological shrinkage, share of patients” value ([3]; monotherapy, patients had failed at least two prior chemotherapy regimens, 4/36) is given as 11%.

Source: US20230277661A1, “TREATMENT OF CANCER USING A CEA CD3 BISPECIFIC ANTIBODY AND A TGFbeta SIGNALING INHIBITOR” (Hoffmann-La Roche Inc., priority 2020, published 2023)
